Measured values from ChEMBL document CHEMBL5465560, “Selectivity Literature for EUbOPEN Chemogenomic Library” (2024).

What was measured:
[1] = target: T1, Muscarinic acetylcholine receptor M2 (Homo sapiens) (UniProt P08172); test: Selectivity interaction (Safety Panel 44tm (Eurofins)) EUB0000162b CHRM2; details: at 10 µM
T1 sequence (whole entry): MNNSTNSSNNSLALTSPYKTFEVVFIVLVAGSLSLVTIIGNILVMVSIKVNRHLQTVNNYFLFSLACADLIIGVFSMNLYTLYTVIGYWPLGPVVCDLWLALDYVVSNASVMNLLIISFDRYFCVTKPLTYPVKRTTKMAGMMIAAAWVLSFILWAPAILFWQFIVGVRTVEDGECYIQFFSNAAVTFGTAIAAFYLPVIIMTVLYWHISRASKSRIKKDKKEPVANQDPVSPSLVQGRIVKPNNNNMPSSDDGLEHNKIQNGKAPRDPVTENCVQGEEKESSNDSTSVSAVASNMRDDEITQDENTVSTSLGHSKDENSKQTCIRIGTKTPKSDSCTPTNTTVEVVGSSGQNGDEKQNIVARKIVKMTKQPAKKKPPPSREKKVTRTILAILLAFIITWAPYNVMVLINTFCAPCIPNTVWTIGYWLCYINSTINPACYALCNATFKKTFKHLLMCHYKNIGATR

[2] = target: T2, Serine/threonine-protein kinase D1 (Homo sapiens) (UniProt Q15139); test: Selectivity interaction (ProQinase) EUB0000171b PRKD1
T2 sequence (whole entry): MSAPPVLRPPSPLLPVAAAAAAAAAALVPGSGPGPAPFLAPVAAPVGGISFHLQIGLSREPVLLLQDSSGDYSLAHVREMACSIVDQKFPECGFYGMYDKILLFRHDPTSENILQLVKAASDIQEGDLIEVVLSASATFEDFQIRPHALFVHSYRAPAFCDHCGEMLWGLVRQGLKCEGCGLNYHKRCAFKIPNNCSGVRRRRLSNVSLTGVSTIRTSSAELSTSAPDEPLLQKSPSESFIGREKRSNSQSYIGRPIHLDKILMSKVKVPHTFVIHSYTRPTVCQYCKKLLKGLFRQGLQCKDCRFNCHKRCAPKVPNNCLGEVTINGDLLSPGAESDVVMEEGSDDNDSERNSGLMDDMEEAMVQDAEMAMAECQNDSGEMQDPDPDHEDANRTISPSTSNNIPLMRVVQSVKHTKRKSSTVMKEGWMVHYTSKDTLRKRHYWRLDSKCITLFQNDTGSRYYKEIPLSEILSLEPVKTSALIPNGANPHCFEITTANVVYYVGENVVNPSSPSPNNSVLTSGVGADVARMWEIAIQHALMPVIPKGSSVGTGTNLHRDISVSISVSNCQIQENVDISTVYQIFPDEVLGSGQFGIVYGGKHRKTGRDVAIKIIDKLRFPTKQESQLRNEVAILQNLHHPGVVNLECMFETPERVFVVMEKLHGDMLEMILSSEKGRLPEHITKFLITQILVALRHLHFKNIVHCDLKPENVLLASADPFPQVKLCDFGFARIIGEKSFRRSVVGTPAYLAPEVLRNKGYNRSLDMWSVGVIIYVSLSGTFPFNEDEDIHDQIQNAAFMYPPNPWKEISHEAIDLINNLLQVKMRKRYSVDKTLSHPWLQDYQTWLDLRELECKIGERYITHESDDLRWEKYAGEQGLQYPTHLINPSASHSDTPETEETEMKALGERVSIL

[3] = target: T3, Mitogen-activated protein kinase 13 (Homo sapiens) (UniProt O15264); test: Selectivity interaction (Kinase panel (KiNativ target engagement assay in Jurkat cells)) EUB0001635a MAPK13; format: cell-based; details: Selectivity number of off-targets 0.0, Selectivity number of targets 233.0, Source Knowledge https://www.sciencedirect.com/science/article/pii/S2451945619300674?via%3Dihub, at 1 µM
T3 sequence (whole entry): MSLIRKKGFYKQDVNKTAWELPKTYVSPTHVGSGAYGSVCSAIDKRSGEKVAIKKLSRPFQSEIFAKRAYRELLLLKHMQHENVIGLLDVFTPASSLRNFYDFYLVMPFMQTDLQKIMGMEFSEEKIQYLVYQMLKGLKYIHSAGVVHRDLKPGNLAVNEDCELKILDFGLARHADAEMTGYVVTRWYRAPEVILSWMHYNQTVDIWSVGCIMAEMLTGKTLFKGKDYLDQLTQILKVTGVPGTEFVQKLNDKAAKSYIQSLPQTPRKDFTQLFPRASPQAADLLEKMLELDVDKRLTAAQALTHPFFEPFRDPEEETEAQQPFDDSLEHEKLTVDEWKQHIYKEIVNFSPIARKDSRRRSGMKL

[4] = target: Calcium/calmodulin-dependent protein kinase type II subunit gamma (Homo sapiens) (UniProt Q13555); details: at 10 µM
Calcium/calmodulin-dependent protein kinase type II subunit gamma (Homo sapiens), sequence (Q13555 whole entry): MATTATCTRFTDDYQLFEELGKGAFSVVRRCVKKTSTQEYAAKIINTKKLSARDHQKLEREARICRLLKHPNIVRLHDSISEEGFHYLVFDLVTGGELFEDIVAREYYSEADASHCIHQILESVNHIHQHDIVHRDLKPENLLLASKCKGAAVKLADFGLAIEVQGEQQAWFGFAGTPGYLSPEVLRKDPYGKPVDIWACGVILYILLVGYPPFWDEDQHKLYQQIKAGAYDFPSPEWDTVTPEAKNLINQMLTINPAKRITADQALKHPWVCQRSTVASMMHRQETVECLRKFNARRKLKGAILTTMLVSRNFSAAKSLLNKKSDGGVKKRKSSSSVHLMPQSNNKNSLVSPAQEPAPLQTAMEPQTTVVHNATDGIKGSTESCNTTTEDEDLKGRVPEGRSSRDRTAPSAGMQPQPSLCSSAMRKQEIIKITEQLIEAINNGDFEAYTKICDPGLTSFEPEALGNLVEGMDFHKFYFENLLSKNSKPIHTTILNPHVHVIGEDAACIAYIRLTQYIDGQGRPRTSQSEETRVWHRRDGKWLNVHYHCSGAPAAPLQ

[5] = target: Cyclin-dependent kinase 5/CDK5 activator 1 (Homo sapiens) (UniProt Q00535+Q15078); test: Selectivity interaction (Kinase panel (Z-LYTE Assay)) EUB0001632a CDK5; format: protein-complex assay; details: at 10 µM
Cyclin-dependent kinase 5/CDK5 activator 1 (Homo sapiens), sequence (Q00535 whole entry): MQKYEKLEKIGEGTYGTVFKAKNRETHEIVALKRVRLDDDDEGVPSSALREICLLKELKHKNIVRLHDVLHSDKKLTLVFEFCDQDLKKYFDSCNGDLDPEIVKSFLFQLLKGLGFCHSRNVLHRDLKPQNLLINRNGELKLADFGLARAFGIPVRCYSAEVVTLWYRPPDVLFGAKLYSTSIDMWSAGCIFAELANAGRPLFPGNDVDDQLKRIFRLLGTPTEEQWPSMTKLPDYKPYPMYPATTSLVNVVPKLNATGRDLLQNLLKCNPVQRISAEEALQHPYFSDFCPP
Cyclin-dependent kinase 5/CDK5 activator 1 (Homo sapiens), sequence (Q15078 99-307 partner limits assumed): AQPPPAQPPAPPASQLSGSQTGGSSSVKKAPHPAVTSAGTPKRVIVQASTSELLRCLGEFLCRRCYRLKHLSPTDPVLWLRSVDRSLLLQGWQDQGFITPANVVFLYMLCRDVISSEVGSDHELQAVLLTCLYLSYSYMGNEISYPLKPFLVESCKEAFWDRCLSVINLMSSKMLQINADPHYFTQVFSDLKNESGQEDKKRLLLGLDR

[6] = target: T4, Dual specificity mitogen-activated protein kinase kinase 6 (Homo sapiens) (UniProt P52564); test: Selectivity interaction (Kinase panel (Invitrogen)) EUB0000639a MAP2K6; details: at 200 nM
T4 sequence (whole entry): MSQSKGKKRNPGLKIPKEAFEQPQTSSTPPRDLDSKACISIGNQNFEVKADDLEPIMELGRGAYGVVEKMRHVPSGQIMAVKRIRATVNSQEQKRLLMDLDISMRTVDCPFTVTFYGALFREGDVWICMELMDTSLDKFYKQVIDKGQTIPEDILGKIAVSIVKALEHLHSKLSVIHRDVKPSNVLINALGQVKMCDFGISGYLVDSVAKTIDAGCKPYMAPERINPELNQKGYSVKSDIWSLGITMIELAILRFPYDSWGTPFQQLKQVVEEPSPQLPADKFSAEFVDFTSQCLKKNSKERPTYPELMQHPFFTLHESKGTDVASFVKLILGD

SMILES: CN(C)C(=O)Cn1cc(-c2ccc(-c3cncc4ccccc34)cc2)cn1
- % of control [1]: 84%

SMILES: C=CC(=O)Nc1cccc(C(=O)Nc2ccc(Nc3cc(-c4[nH]c(SC)nc4C)ccn3)cc2)c1
- % of control ([2]; at 1 µM): 68%
- % of control ([2]; at 5 µM): 31%

SMILES: C=CC(=O)Nc1ccc(C(=O)Nc2[nH]nc3c2CN(C(=O)N[C@H](CN(C)C)c2ccccc2)C3(C)C)cc1
- % of engagement [3]: -10.3%

SMILES: Cc1cc([C@@H](C)Nc2ccccc2C(=O)O)c2nc(N3CCOCC3)cc(=O)n2c1 [AZD-6482]
- % of control [4]: 98%

SMILES: Cn1cc(-n2cnc3c(NCc4nc5cc(Cl)c(Cl)cc5[nH]4)nc(N4CCOCC4)nc32)cn1
- % of control [5]: 3.1%

SMILES: CC[C@@H]1[C@H](F)C(=O)N[C@@H]1COc1nccc2cc(C(N)=O)c(OC)cc12 [ZIMLOVISERTIB]
- % of inhibition [6]: 4.3%
